Laboratory results from ChEMBL document CHEMBL1201862, “PubChem BioAssay data set” (2004).
Where “and” joins values, the source holds several entries; their conditions need not be identical. Equal entries are not always repeated.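 Values below derive from 48-hour exposures of cells grown in 96-well plates, with endpoints linearly interpolated between the two concentrations bracketing the appropriate inhibition level. GI50 = concentration required for 50% inhibition of growth.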 Calls of active or inactive are those of the source. Cut-off read from the data, not from the text of the source: active = GI50 up to about 1.1 µM and inactive = higher.

Tests used:
Assay in all cases: inhibition of tumour cell growth, NCI panel, 48 h
[1] = system: 786-0
[2] = system: A498
[3] = system: A549
[4] = system: ACHN
[5] = system: CAKI-1
[6] = system: CCRF-CEM
[7] = system: COLO 205
[8] = system: DU-145
[9] = system: EKVX
[10] = system: HCC 2998
[11] = system: HCT-116
[12] = system: HCT-15
[13] = system: HL-60
[14] = system: HOP-62
[15] = system: HT-29
[16] = system: Hs-578T
[17] = system: IGROV-1
[18] = system: K562
[19] = system: KM12
[20] = system: LOX IMVI
[21] = system: MCF7
[22] = system: MDA-MB-435
[23] = system: MOLT-4
[24] = system: Malme-3M
[25] = system: NCI-H226
[26] = system: NCI-H23
[27] = system: NCI-H460
[28] = system: NCI-H522
[29] = system: NCI/ADR-RES
[30] = system: OVCAR-3
[31] = system: OVCAR-4
[32] = system: OVCAR-8
[33] = system: PC-3
[34] = system: RPMI-8226
[35] = system: RXF 393
[36] = system: SF-268
[37] = system: SF-295
[38] = system: SF-539
[39] = system: SK-MEL-28
[40] = system: SK-MEL-2
[41] = system: SK-MEL-5
[42] = system: SK-OV-3
[43] = system: SN12C
[44] = system: SNB-19
[45] = system: SNB-75
[46] = system: SR
[47] = system: SW-620
[48] = system: T47D
[49] = system: TK-10
[50] = system: U-251
[51] = system: UACC-257
[52] = system: UACC-62
[53] = system: UO-31
[54] = system: HOP-92
[55] = system: M14
[56] = system: MDA-MB-231
[57] = system: OVCAR-5

ON=C(CC(O)(C(F)(F)Cl)C(F)(F)Cl)CC(O)(C(F)(F)Cl)C(F)(F)Cl
GI50 [1]: 5.21 µM (inactive) | GI50 [2]: 2.87 µM (inactive) | GI50 [3]: 5.46 µM (inactive) | GI50 [4]: 3.66 µM (inactive) | GI50 [5]: 5.46 µM (inactive) | GI50 [6]: 5.56 µM (inactive) | GI50 [7]: 5.04 µM (inactive) | GI50 [8]: 3.28 µM (inactive) | GI50 [9]: 5.04 µM (inactive) | GI50 [10]: 4.5 µM (inactive) | GI50 [11]: 3.29 µM (inactive) | GI50 [12]: 3.55 µM | GI50 [13]: 4.1 µM (inactive) | GI50 [14]: 2.84 µM (inactive) | GI50 [15]: 9.14 µM (inactive) | GI50 [16]: 3.52 µM (inactive) | GI50 [17]: 6.37 µM (inactive) | GI50 [18]: > 10 µM (inactive) | GI50 [19]: 8.38 µM (inactive) | GI50 [20]: 5.26 µM (inactive) | GI50 [21]: 3.87 µM (inactive) | GI50 [22]: 4.07 µM (inactive) | GI50 [23]: 4.83 µM (inactive) | GI50 [24]: 2.99 µM (inactive) | GI50 [25]: 4.07 µM (inactive) | GI50 [26]: 2.56 µM (inactive) | GI50 [27]: 4.1 µM (inactive) | GI50 [28]: 3.21 µM (inactive) | GI50 [29]: 4.69 µM (inactive) | GI50 [30]: 3.23 µM (inactive) | GI50 [31]: 4.92 µM (inactive) | GI50 [32]: 6.9 µM (inactive) | GI50 [33]: 3.33 µM (inactive) | GI50 [34]: 2.7 µM (inactive) | GI50 [35]: 2.7 µM (inactive) | GI50 [36]: 3.55 µM (inactive) | GI50 [37]: 7.89 µM (inactive) | GI50 [38]: 2.07 µM (inactive) | GI50 [39]: 6.27 µM (inactive) | GI50 [40]: 3.03 µM (inactive) | GI50 [41]: 4.2 µM (inactive) | GI50 [42]: 2.99 µM (inactive) | GI50 [43]: 4.67 µM (inactive) | GI50 [44]: 4.25 µM (inactive) | GI50 [45]: 6.61 µM (inactive) | GI50 [46]: 4.58 µM (inactive) | GI50 [47]: > 10 µM (inactive) | GI50 [48]: 3.37 µM (inactive) | GI50 [49]: 7.66 µM (inactive) | GI50 [50]: 3.46 µM (inactive) | GI50 [51]: 4.38 µM (inactive) | GI50 [52]: 3.46 µM (inactive) | GI50 [53]: 3.33 µM (inactive)

COc1ccc(C2c3c(-c4ccccc4)nn(-c4ccccc4)c3Oc3ncn4nc(CC#N)nc4c32)cc1OC (centres undefined)
GI50 [9]: 7.89 µM (inactive) | GI50 [12]: 14 µM and 20.3 µM | GI50 [18]: 22.6 µM (inactive) and > 23.7 µM (inactive) | GI50 [23]: > 100 µM (inactive) | GI50 [43]: 15 µM (inactive) and > 20.1 µM (inactive) | GI50 [46]: 5.57 µM (inactive) | GI50 [48]: 10.1 µM (inactive)

Oc1c(Cl)c(Cl)c(O)c(-c2cnc(-c3ncc(-c4c(O)c(Cl)c(Cl)c(O)c4Cl)s3)s2)c1Cl
GI50 [1]: 25.1 µM (inactive) | GI50 [3]: 29.6 µM (inactive) | GI50 [4]: 23.3 µM (inactive) | GI50 [5]: 20.9 µM (inactive) | GI50 [6]: 8.53 µM (inactive) | GI50 [7]: 28.6 µM (inactive) | GI50 [8]: 49.8 µM (inactive) | GI50 [9]: 21.2 µM (inactive) | GI50 [10]: 36.6 µM (inactive) | GI50 [11]: 21.1 µM (inactive) | GI50 [12]: 13.6 µM | GI50 [13]: 33.3 µM (inactive) | GI50 [14]: 54.2 µM (inactive) | GI50 [54]: 25 µM (inactive) | GI50 [15]: 35.6 µM (inactive) | GI50 [16]: 15.2 µM (inactive) | GI50 [17]: 16.1 µM (inactive) | GI50 [18]: 34.1 µM (inactive) | GI50 [19]: 29.2 µM (inactive) | GI50 [55]: 19.5 µM (inactive) | GI50 [21]: 18.2 µM (inactive) | GI50 [56]: 20.7 µM (inactive) | GI50 [22]: 21.9 µM (inactive) | GI50 [23]: > 100 µM (inactive) | GI50 [24]: 29.4 µM (inactive) | GI50 [25]: 3.96 µM (inactive) | GI50 [26]: 19.3 µM (inactive) | GI50 [27]: 30.1 µM (inactive) | GI50 [28]: 2.1 µM (inactive) | GI50 [29]: 25.3 µM (inactive) | GI50 [30]: 21.4 µM (inactive) | GI50 [31]: 80.5 µM (inactive) | GI50 [57]: 15.5 µM (inactive) | GI50 [32]: 16.7 µM (inactive) | GI50 [33]: 29.4 µM (inactive) | GI50 [35]: 18.9 µM (inactive) | GI50 [36]: 22 µM (inactive) | GI50 [37]: 19.9 µM (inactive) | GI50 [38]: 24.3 µM (inactive) | GI50 [39]: 29.6 µM (inactive) | GI50 [40]: 18.4 µM (inactive) | GI50 [41]: 7.8 µM (inactive) | GI50 [42]: 41.2 µM (inactive) | GI50 [43]: 27.4 µM (inactive) | GI50 [44]: 27.9 µM (inactive) | GI50 [45]: 28.1 µM (inactive) | GI50 [46]: 35.6 µM (inactive) | GI50 [47]: 21.4 µM (inactive) | GI50 [48]: 29.9 µM (inactive) | GI50 [49]: 26.7 µM (inactive) | GI50 [50]: 22.6 µM (inactive) | GI50 [51]: 29 µM (inactive) | GI50 [52]: 19.7 µM (inactive) | GI50 [53]: 21.1 µM (inactive)

Cc1ncc([N+](=O)[O-])n1CC(O)Cn1cnc([N+](=O)[O-])n1 (centres undefined)
GI50 [1]: > 100 µM (inactive) | GI50 [2]: 2.84 µM (inactive) | GI50 [3]: > 100 µM (inactive) | GI50 [4]: > 100 µM (inactive) | GI50 [6]: > 100 µM (inactive) | GI50 [9]: > 100 µM (inactive) | GI50 [10]: > 100 µM (inactive) | GI50 [11]: > 100 µM (inactive) | GI50 [12]: > 100 µM | GI50 [13]: 64.1 µM (inactive) | GI50 [14]: > 100 µM (inactive) | GI50 [15]: > 100 µM (inactive) | GI50 [16]: > 100 µM (inactive) | GI50 [18]: > 100 µM (inactive) | GI50 [19]: > 100 µM (inactive) | GI50 [21]: > 100 µM (inactive) | GI50 [23]: > 100 µM (inactive) | GI50 [24]: 55.1 µM (inactive) | GI50 [25]: > 100 µM (inactive) | GI50 [26]: > 100 µM (inactive) | GI50 [27]: > 100 µM (inactive) | GI50 [28]: > 100 µM (inactive) | GI50 [30]: > 100 µM (inactive) | GI50 [57]: > 100 µM (inactive) | GI50 [32]: > 100 µM (inactive) | GI50 [33]: > 100 µM (inactive) | GI50 [34]: > 100 µM (inactive) | GI50 [36]: > 100 µM (inactive) | GI50 [37]: > 100 µM (inactive) | GI50 [38]: > 100 µM (inactive) | GI50 [39]: > 100 µM (inactive) | GI50 [40]: > 100 µM (inactive) | GI50 [41]: > 100 µM (inactive) | GI50 [43]: > 100 µM (inactive) | GI50 [45]: > 100 µM (inactive) | GI50 [46]: > 100 µM (inactive) | GI50 [47]: > 100 µM (inactive) | GI50 [49]: > 10 µM (inactive) | GI50 [50]: > 100 µM (inactive) | GI50 [51]: > 100 µM (inactive)

O=C(CCCn1cnc([N+](=O)[O-])n1)NCCCn1ccnc1[N+](=O)[O-]
GI50 [1]: > 100 µM (inactive) | GI50 [2]: 9.35 µM (inactive) | GI50 [3]: > 100 µM (inactive) | GI50 [4]: > 100 µM (inactive) | GI50 [6]: > 100 µM (inactive) | GI50 [9]: > 100 µM (inactive) | GI50 [10]: > 100 µM (inactive) | GI50 [11]: > 100 µM (inactive) | GI50 [12]: > 100 µM | GI50 [13]: 78.9 µM (inactive) | GI50 [14]: > 100 µM (inactive) | GI50 [15]: > 100 µM (inactive) | GI50 [16]: > 100 µM (inactive) | GI50 [18]: > 100 µM (inactive) | GI50 [19]: > 100 µM (inactive) | GI50 [21]: > 100 µM (inactive) | GI50 [23]: > 100 µM (inactive) | GI50 [24]: 83.2 µM (inactive) | GI50 [25]: > 100 µM (inactive) | GI50 [26]: > 100 µM (inactive) | GI50 [27]: > 100 µM (inactive) | GI50 [28]: > 100 µM (inactive) | GI50 [30]: > 100 µM (inactive) | GI50 [57]: > 100 µM (inactive) | GI50 [32]: > 100 µM (inactive) | GI50 [33]: > 100 µM (inactive) | GI50 [34]: > 100 µM (inactive) | GI50 [36]: > 100 µM (inactive) | GI50 [37]: > 100 µM (inactive) | GI50 [38]: > 100 µM (inactive) | GI50 [39]: > 100 µM (inactive) | GI50 [40]: 32.4 µM (inactive) | GI50 [41]: 61.8 µM (inactive) | GI50 [43]: > 100 µM (inactive) | GI50 [45]: > 100 µM (inactive) | GI50 [46]: > 100 µM (inactive) | GI50 [47]: 68.2 µM (inactive) | GI50 [49]: 99.8 µM (inactive) | GI50 [50]: > 100 µM (inactive) | GI50 [51]: > 100 µM (inactive)
